The record followed here is patent US10933051B2, “Carbapenem compounds and compositions for the treatment of bacterial infections” (FOB Synthesis, Inc., priority 2017, dated 2021).

Holding throughout (format): cell-based
What all share (design): unit not given here

The subject of one assay is P. aeruginosa ATCC27853. Nature of the assay: MIC by CLSI agar/broth dilution, Test Example 1. The note with it: Table 2. As to the method:
(§1) The MIC (minimum inhibitory concentration) was determined by the CLSI (Clinical and Laboratory Standards Institute) methods. The agar dilution method for determining antimicrobial susceptibility was carried out using Mueller Hinton-II agar and the amount of inoculation was 10^4 CFU/spot. Broth dilution tests were performed using Mueller Hinton-II broth. All assays were run with the indicated control strains, available from the ATCC (American Type Culture Collection, Rockville, Md.).

A further assay deals with E. coli ATCC10536. As to the kind of experiment: MIC by CLSI agar/broth dilution, Test Example 1. The note with it: Table 2. As to the method:
as §1
(In general: Broth dilution looks for growth in wells or tubes with falling amounts of substance.)

Another assay concerns K. pneumoniae ATCC10031. As to the kind of experiment: MIC by CLSI agar/broth dilution, Test Example 1. The note with it: Table 2. As to the method: as §1
In another assay the test system is A. baumannii KABA 01-33. As to the kind of experiment: MIC by CLSI agar/broth dilution, Test Example 1. The note with it: Table 2; strain produces OXA-2, VIM-2. As to the method:
as §1

The next assay has as its system A. baumannii 4010. Nature of the assay: MIC by CLSI agar/broth dilution, Test Example 1. The note with it: Table 2; strain produces OXA-51. As to the method: as §1
The subject of the next assay is A. baumannii FSAb-056. As to the kind of experiment: Antimicrobial Susceptibility Test (CLSI), Test Example 2. The note with it: Table 4; strain produces OXA-23, OXA-51. As to the method: (§2) Antimicrobial Susceptibility Test was performed by the CLSI (Clinical and Laboratory Standards Institute) methods. The agar dilution method for determining antimicrobial susceptibility was carried out using Mueller Hinton-II agar and the amount of inoculation was 10^4CFU/spot. Broth dilution tests were performed using the Mueller Hinton-II broth. All assays were run with the indicated control strains, available from the ATCC (American Type Culture Collection, Rockville, Md.).

A further assay relates to A. baumannii FSAb-029. The assay is described as above. The note with it: Table 4; strain produces OXA-2, IMP-1. As to the method:
as §2

In the next assay the test system is A. baumannii FSAb-065. The assay is described as above. The note with it: Table 4; strain produces OXA-2, VIM-2. As to the method: as §2
For the next assay, the system named is E. coli FSEco-054. Described as above. The note with it: Table 4; strain produces ESBL. As to the method: as §2
For assay [1], the system named is K. pneumoniae ATCC BAA-1904. Described as above. The note with it: Table 4; strain produces KPC-3. As to the method: as §2
The test system of the next assay is A. baumannii FSAb-039. The description is as above. The note with it: Table 4; strain produces OXA-51. As to the method: as §2
The next assay relates to P. aeruginosa FSPa-121. The assay is described as above. The note with it: Table 4; strain produces OXA-17. As to the method: as §2

Consider `C[C@@H](O)[C@H]1C(=O)N2C(C(=O)O)=C(CN(C)CCNC(=O)c3ccc(O)c(O)c3Cl)[C@H](C)[C@H]12` [Compound 1], for which the “MIC (minimum inhibitory concentration), P. aeruginosa ATCC27853” value against P. aeruginosa ATCC27853 was determined as 4. Moreover, the “MIC (minimum inhibitory concentration), E. coil ATCC10536” value with E. coli ATCC10536 was found to be 0.5. The “MIC (minimum inhibitory concentration), K. pneumoniae ATCC10031” value against K. pneumoniae ATCC10031 amounted to 0.063. The “MIC (minimum inhibitory concentration), A. baumannii KABA 01-33” value with A. baumannii KABA 01-33 was determined as 1. Also, the “MIC (minimum inhibitory concentration), A. baumannii 4010” value against A. baumannii 4010 amounted to 2. Further, the “antimicrobial susceptibility, A. baumannii FSAb-056” value in the assay with A. baumannii FSAb-056 was 2. The “antimicrobial susceptibility, A. baumannii FSAb-029” value in the assay on A. baumannii FSAb-029 was determined as 1. Also, the “antimicrobial susceptibility, A. baumannii FSAb-065” value with A. baumannii FSAb-065 came to 1. In addition, the “antimicrobial susceptibility, E. coil FSEco-054” value in the assay on E. coli FSEco-054 is 1. Moreover, the “antimicrobial susceptibility, K. pneumoniae BAA-1904” value in assay [1] was 8. Besides, the “antimicrobial susceptibility, A. baumannii FSAb-039” value in the assay on A. baumannii FSAb-039 was found to be 2. Further, in the assay with P. aeruginosa FSPa-121, the “antimicrobial susceptibility, P. aeruginosa FSPa-121” value came out at 2.
Consider `C[C@@H](O)[C@H]1C(=O)N2C(C(=O)O)=C(CN(C)CCNC(=O)c3cc(O)c(O)cc3Cl)[C@H](C)[C@H]12` [Compound 5], for which, in the assay on P. aeruginosa ATCC27853, the “MIC (minimum inhibitory concentration), P. aeruginosa ATCC27853” value was 16. In addition, the “MIC (minimum inhibitory concentration), E. coil ATCC10536” value in the assay with E. coli ATCC10536 is on record as 1. In addition, the “MIC (minimum inhibitory concentration), K. pneumoniae ATCC10031” value against K. pneumoniae ATCC10031 is given as 0.13. Also, the “MIC (minimum inhibitory concentration), A. baumannii KABA 01-33” value with A. baumannii KABA 01-33 was 2. Moreover, the “MIC (minimum inhibitory concentration), A. baumannii 4010” value against A. baumannii 4010 is reported as 8. For the same compound, in the assay with A. baumannii FSAb-056, the “antimicrobial susceptibility, A. baumannii FSAb-056” value was found to be 8. In the assay with A. baumannii FSAb-029, the “antimicrobial susceptibility, A. baumannii FSAb-029” value was 8. In addition, the “antimicrobial susceptibility, A. baumannii FSAb-065” value in the assay on A. baumannii FSAb-065 is given as 8. The “antimicrobial susceptibility, E. coil FSEco-054” value in the assay on E. coli FSEco-054 is recorded as 4. In [1], the “antimicrobial susceptibility, K. pneumoniae BAA-1904” value is 32. Moreover, the “antimicrobial susceptibility, A. baumannii FSAb-039” value in the assay with A. baumannii FSAb-039 is 8. Also, the “antimicrobial susceptibility, P. aeruginosa FSPa-121” value with P. aeruginosa FSPa-121 came out at 8.
On to `C[C@@H](O)[C@H]1C(=O)N2C(C(=O)O)=C(CN(C)CCNC(=O)c3cc(O)c(O)c(Cl)c3)[C@H](C)[C@H]12` [Compound 6], for which the “MIC (minimum inhibitory concentration), P. aeruginosa ATCC27853” value in the assay on P. aeruginosa ATCC27853 came to 8. Moreover, in the assay on E. coli ATCC10536, the “MIC (minimum inhibitory concentration), E. coil ATCC10536” value was 0.5. Also, the “MIC (minimum inhibitory concentration), K. pneumoniae ATCC10031” value in the assay on K. pneumoniae ATCC10031 worked out at 0.063. Besides, the “MIC (minimum inhibitory concentration), A. baumannii KABA 01-33” value in the assay on A. baumannii KABA 01-33 came out at 1. Moreover, the “MIC (minimum inhibitory concentration), A. baumannii 4010” value against A. baumannii 4010 worked out at 4. Also, in the assay on A. baumannii FSAb-056, the “antimicrobial susceptibility, A. baumannii FSAb-056” value is 2. In the assay with A. baumannii FSAb-029, the “antimicrobial susceptibility, A. baumannii FSAb-029” value is 2. In the assay with A. baumannii FSAb-065, the “antimicrobial susceptibility, A. baumannii FSAb-065” value worked out at 2. Besides, the “antimicrobial susceptibility, E. coil FSEco-054” value in the assay with E. coli FSEco-054 is 1. Further, the “antimicrobial susceptibility, K. pneumoniae BAA-1904” value in [1] was 32. Further, in the assay with A. baumannii FSAb-039, the “antimicrobial susceptibility, A. baumannii FSAb-039” value was determined as 4. Moreover, in the assay with P. aeruginosa FSPa-121, the “antimicrobial susceptibility, P. aeruginosa FSPa-121” value is 2.
As to `C[C@@H](O)[C@H]1C(=O)N2C(C(=O)O)=C(CN(C)CC(=O)NCCNC(=O)c3ccc(O)c(O)c3Cl)[C@H](C)[C@H]12` [Compound 19], in the assay with P. aeruginosa ATCC27853, the “MIC (minimum inhibitory concentration), P. aeruginosa ATCC27853” value is 4. Further, the “MIC (minimum inhibitory concentration), E. coil ATCC10536” value against E. coli ATCC10536 came out at 0.5. Moreover, the “MIC (minimum inhibitory concentration), K. pneumoniae ATCC10031” value with K. pneumoniae ATCC10031 is listed as 0.063. Further, in the assay on A. baumannii KABA 01-33, the “MIC (minimum inhibitory concentration), A. baumannii KABA 01-33” value is on record as 1. For the same compound, in the assay on A. baumannii 4010, the “MIC (minimum inhibitory concentration), A. baumannii 4010” value came to 4. Also, the “antimicrobial susceptibility, A. baumannii FSAb-056” value with A. baumannii FSAb-056 is on record as 8. For the same compound, the “antimicrobial susceptibility, A. baumannii FSAb-029” value in the assay on A. baumannii FSAb-029 worked out at 8. Also, in the assay with A. baumannii FSAb-065, the “antimicrobial susceptibility, A. baumannii FSAb-065” value is given as 8. The “antimicrobial susceptibility, E. coil FSEco-054” value in the assay with E. coli FSEco-054 amounted to 8. Besides, the “antimicrobial susceptibility, K. pneumoniae BAA-1904” value in assay [1] is reported as 8. Moreover, the “antimicrobial susceptibility, A. baumannii FSAb-039” value in the assay with A. baumannii FSAb-039 is recorded as 8. The “antimicrobial susceptibility, P. aeruginosa FSPa-121” value in the assay with P. aeruginosa FSPa-121 is on record as 4.
As to `C[C@@H](O)[C@H]1C(=O)N2C(C(=O)O)=C(CN(C)CC(=O)NCc3cc(=O)c(O)cn3O)[C@H](C)[C@H]12` [Compound 26], the “MIC (minimum inhibitory concentration), P. aeruginosa ATCC27853” value with P. aeruginosa ATCC27853 is 8. The “MIC (minimum inhibitory concentration), E. coil ATCC10536” value with E. coli ATCC10536 was found to be 0.5. Besides, the “MIC (minimum inhibitory concentration), K. pneumoniae ATCC10031” value against K. pneumoniae ATCC10031 worked out at 0.13. The “MIC (minimum inhibitory concentration), A. baumannii KABA 01-33” value against A. baumannii KABA 01-33 is listed as 2. Further, the “MIC (minimum inhibitory concentration), A. baumannii 4010” value against A. baumannii 4010 was determined as 8. For the same compound, the “antimicrobial susceptibility, A. baumannii FSAb-056” value in the assay with A. baumannii FSAb-056 is 4. Further, in the assay on A. baumannii FSAb-029, the “antimicrobial susceptibility, A. baumannii FSAb-029” value worked out at 16. Besides, the “antimicrobial susceptibility, A. baumannii FSAb-065” value in the assay with A. baumannii FSAb-065 came to 4. The “antimicrobial susceptibility, E. coil FSEco-054” value with E. coli FSEco-054 stood at 4. In assay [1], the “antimicrobial susceptibility, K. pneumoniae BAA-1904” value was determined as 32. Also, in the assay on A. baumannii FSAb-039, the “antimicrobial susceptibility, A. baumannii FSAb-039” value is on record as 16. For the same compound, the “antimicrobial susceptibility, P. aeruginosa FSPa-121” value in the assay with P. aeruginosa FSPa-121 is given as 4.
